Source: patent publication US8846628B2, “Oral formulations of cytidine analogs and methods of use thereof” (Celgene Corporation, priority 2008, dated 2014)
Entries after “also recorded” stand apart in the source; their conditions may differ.

Tests used:
patients with MDS or AML [1] = conditions: in vivo
[2] = in vivo
clinical = conditions: human, in vivo
[3] = Rapid Aza Clinical Evaluation (RACE) study CL008: plasma PK; type: in vivo; conditions: human; for AUC(0-t) / AUC(0-inf): sc; for AUC(0-t): 75 mg/m^2, one subject (Formulation 4 cohort), SC 75 mg/m^2 (124 mg); for AUC(0-inf): SC 75 mg/m^2 (120 mg)
Protocol: Several oral formulations were evaluated in this study. A “3+7” cohort of patients was enrolled in the study, i.e., three patients were initially tested per formulation, and the cohorts could increase in size up to ten patients. Cohorts were enrolled in parallel.

patients with MDS or AML [4] = test: MTD study CL005: hematological response, IWG criteria; type: in vivo, human
Text: Assessment of IWG criteria for certain patients in the MTD study is presented below in Table 10.

Nc1ncn([C@@H]2O[C@H](CO)[C@@H](O)[C@H]2O)c(=O)n1 [azacitidine, 4-amino-1-β-D-ribofuranosyl-1,3,5-triazin-2(1H)-one]
dose limited toxicity (DLT) (patients with MDS or AML [1]): none of the patients have shown dose limited toxicity (DLT)
dose proportionality of exposure [2]: did not result in dose-proportional increase in exposure
AUC (clinical; po, 180 mg): 330 ng·h/mL
bioavailability (clinical; po, 180 mg): 30%
AUC (clinical; sc, 75 mg/m2): 1000 ng·h/mL
AUC(0-inf) (clinical; sc, 75 mg/m2, AUC(0-inf)): 1210 ng·h/mL
AUC(0-t) (clinical; sc, 75 mg/m2, AUC(0-t)): 1140 ng·h/mL
Cmax (clinical; sc, 75 mg/m2, Cmax): 697 ng/mL
Tmax (clinical; sc, 75 mg/m2, Tmax): 0.51 h
half-life (clinical; sc, 75 mg/m2, t½): 1.73 h
AUC ([3]; 75 mg/m^2, one subject (Formulation 6 cohort), following SC dosing, read-out: AUC (rounded)): ~1700 ng·h/mL
AUC(0-t) ([3]; day 1): 2390 ng·h/mL
AUC(0-t) ([3]; day 15): 2440 ng·h/mL
AUC(0-inf) ([3]; 75 mg/m^2, one subject (Formulation 6 cohort), day 1): 1720 ng·h/mL
AUC(0-inf) ([3]; 75 mg/m^2, one subject (Formulation 6 cohort), day 15): 1640 ng·h/mL
IWG Assessment (patients with MDS or AML [4]; Patient 02004 (MDS), SC cycle 1, then oral 120 mg x7d Formulation #1 Cycles 2-6, 180 mg x7d Cycles 7-12): morphologic complete response (CR); also recorded: Per IWG 2006 criteria, the patient achieved complete response (CR); also recorded: achieved morphologic complete response per the IWG AML criteria; also recorded: with regard to the ANC condition for the IWG 2000 CR criteria, the patient did not meet the criteria for a complete response; also recorded: CR per IWG 2006 (Days 45-98); also recorded: Morphologic CR per the IWG AML criteria (Diagnosis is MDS)
IWG Assessment (patients with MDS or AML [4]; Patient 02007 (CMML), Cohort 4, oral 240 mg Formulation #3 after SC cycle 1, per IWG 2000 criteria): HI-P major improvement per IWG 2000 (Days 35-202)
platelets versus baseline (patients with MDS or AML [4]; Patient 02007, oral azacitidine starting with cycle 2 (Formulation #3, 240 mg)): increase in platelets above the baseline levels
IWG Assessment (patients with MDS or AML [4]; Patient 02008 (MDS RAEB-1), Cohort 4, oral 240 mg Formulation #3 after SC cycle 1): HI-P major improvement per IWG 2000 (Days 34-110)
IWG Assessment (patients with MDS or AML [4]; Patient 02009 (MDS RAEB-2), Cohort 4, oral 240 mg Formulation #3 after SC cycle 1): Marrow CR (Days 7-111+) per IWG 2006
IWG Assessment (patients with MDS or AML [4]; Patient 02011 (MDS RAEB-1), Cohort 5, oral 300 mg Formulation #3 after SC cycle 1, per IWG 2006 criteria): Marrow CR (Days 7-177+) per IWG 2006
IWG Assessment (patients with MDS or AML [4]; Patient 02011 (MDS RAEB-1), Cohort 5, oral 300 mg Formulation #3 after SC cycle 1, per revised IWG AML criteria): Morphologic CR per the revised IWG AML criteria on Day 21
